Measurements published in paper PMC9589286, “Ruthenium polypyridine complexes with triphenylamine groups as antibacterial agents against Staphylococcus aureus with membrane-disruptive mechanism” (Frontiers in Chemistry, 2022).

Assays:
[1] = tested on: BALB/c mice; assay: Acute skin irritation test, H&E; type: in vivo; conditions: 0.05 and 0.1 mg ml^−1, once a day for 3 days, topical
Method: Female BALB/c mice were randomly divided into three groups, control group, Ru-3 (0.05 mg ml^−1) group and Ru-3 (0.1 mg ml^−1). The day before the experiment, the hair on the back of female mice was removed. The compound and distilled water control were gently attached to the shaving site (about 2 cm^2) once a day for 3 days. On the fourth day, the mice were killed by cervical dislocation. The skin tissue at the site of infections were taken out and fixed in 4% paraformaldehyde at 4°C for 1 day, then embedded in paraffin. Serial sections were prepared for H&E analysis.

[2] = tested on: Staphylococcus aureus hemolysin; assay: Toxin (hemolysin) secretion, rabbit blood cell hemolysis by culture supernatant; type: cell-based
Method: Firstly, S. aureus was cultured overnight and diluted 1000 times with fresh TSB, then a mixture of Ru-3 of 1 μg ml^−1 or 2 μg ml^−1 and Staphylococcus aureus solution was cultured in a shaking Table at 37°C for 18 h. After culturing, centrifuging (5000 rpm, 2 min) Staphylococcus aureus solution. And rabbit blood cells were prepared with PBS buffer (washing rabbit blood three times). Blood cells were collected by centrifugation (2000 rpm, 2 min). Secondly, a mixture containing 1 ml PBS buffer, 150 μL supernatant and 25 μL blood cells was cultured at 37°C for 30 min. Then cultured supernatant was obtained by centrifugation (2000 rpm, room temperature, 2 min). Finally, the optical density of the supernatant was measured at 540 nm.

[3] = tested on: Staphylococcus aureus; assay: Drug resistance study, 20 generations at sub inhibitory concentration; type: cell-based
Method: After Staphylococcus aureus was cultured for 5 h, the bacteria were diluted 1000 times with fresh TSB and the MIC of Ru-3 was measured. The bacterial solution grown at the sub inhibitory concentration of compound Ru-3 was inoculated into fresh TSB medium for 5 h, then the MIC was measured, and the above procedure was repeated for 20 generations. Ampicillin was used as the control.

[4] = tested on: Staphylococcus aureus in biofilm; assay: Killing bacteria in established biofilm; type: cell-based; conditions: 32 μg ml^−1; initial 8.62
Method: To establish bacterial biofilm, the overnight cultured Staphylococcus aureus strain was diluted 1000 times with fresh TSB medium, then the bacterial suspension was transferred to 96 well plate and cultured for 24 h. Subsequently, the supernatant was removed and the formed biofilm was washed 3 times with PBS solution. 200 μL solution containing Ru-3 of different concentrations (512, 256, 128, 64, 32, 16, 8, 4 μg ml^−1) were added and further incubated at 37°C for 24 h. Biofilm without Ru-3 were used as positive controls. Then the supernatant was discarded and the residual biofilm was cleaned using 200 μL PBS 3 times. Next, fresh medium was added to culture for 24 h ([Yang et al., 2021]). The solution after culture was diluted 1000 times and 100 μL was taken out for plate coating and counting.

[5] = tested on: Staphylococcus aureus; assay: Nucleic acid leakage, 260 nm absorbing material; type: cell-based; conditions: 4 μg/ml, 2 h
Method: To verify the membrane damage, the loss of 260 nm absorbing material was carried out ([Yu et al., 2021]). Briefly, overnight cultured bacteria were diluted 1:1000 in fresh TSB and shaken at 37°C for about 5 h until the exponential stage was reached. The supernatant was removed by centrifugation, then the bacteria were resuspended to OD600 = 1 with PBS, which was further treated with Ru-3 or polymyxin B and centrifuged after 2 h to precipitate bacterial cells. Subsequently, the loss of 260 nm absorbing material, including the release of DNA and RNA in the filtrate, was measured at 260 nm.

[6] = tested on: Staphylococcus aureus; assay: MBC determined by LB plates; type: cell-based; conditions: S. aureus, 24 h
Method: Antibacterial activity was evaluated by measuring MIC (minimum inhibitory concentration) and MBC (minimum bactericidal concentration) values. The MIC value was measured by the microdilution method using TSB broth with 96 well plates ([Carlsen et al., 1981]) and the MBC value was determined by LB plates. In brief, the overnight cultured bacteria were 1: 1000 diluted with fresh medium to get a bacterial suspension. After incubation at 37°C for 20 h, the growth of bacteria is monitored by observing the turbidity of the culture. The bacterial solution was diluted as above method and the complexes were incubated with bacterial solution for 2 h. Then 100 μL bacterial solution was taken for plate coating. The Staphylococcus aureus growth inhibition trend in the presence of complexes was obtained. The MBC values of complexes were determined by LB plates after culturing in the same method for 24 h. All experiments were controlled with sterile water and repeated in parallel at least three times.

[Ru(dmb)2PMA] (PF6)2 [Ru-3]
skin irritation, H&E pathological changes [1]: no obvious pathological abnormalities
Toxin reduced by ([2]; 1 μg ml^−1): 38%
Toxin reduced by ([2]; 2 μg ml^−1): 63%
increase of MIC value after 20 generations ([3]; 20 passages at sublethal concentration): four
MIC values against antibiotic resistant S. aureus ([3]; ampicillin, polymyxin B, tetracycline, clindamycin resistant S. aureus obtained after 20 generations): almost the same as the wild type
number of the survival Staphylococcus aureus in the biofilm [4]: 0 log10 colony-forming units per milliliter (CFU/ml)
Δ% Nucleic acid leakage [5]: 20%
MBC [6]: 32 µg/mL
